Test results taken from ChEMBL document CHEMBL5376015, “Kinase inhibitor macrocycles: a perspective on limiting conformational flexibility when targeting the kinome with small molecules” (RSC Med Chem, 2024).
Converted amounts (≈) assume the structure as drawn.

What was measured:
NIH3T3 [1] = experiment: Antiproliferative activity against mouse NIH3T3 cells harbouring ETV6-TRKC G696A mutant incubated for 3 days by CCK8 method; type: functional; details: NIH3T3, 72 h, time 3 day
NIH3T3 [2] = experiment: Antiproliferative activity against mouse NIH3T3 cells expressing TRKA G667S mutant assessed as inhibition of cell growth measured after 72 hrs by CCK-8 assay; type: functional
NIH3T3 [3] = experiment: Antiproliferative activity against mouse NIH3T3 cells harbouring TRKC G595R mutant assessed as cell growth inhibition incubated for 3 days by CCK8 method; type: functional; details: NIH3T3, 72 h, time 3 day
NIH3T3 [4] = experiment: Antiproliferative activity against mouse NIH3T3 cells harbouring TRKA V573M mutant assessed as cell growth inhibition incubated for 3 days by CCK8 method; type: functional; details: NIH3T3, 72 h, time 3 day
NIH3T3 [5] = experiment: Antiproliferative activity against mouse NIH3T3 cells expressing TRKA F589L mutant assessed as inhibition of cell growth measured after 72 hrs by CCK-8 assay; type: functional
NIH3T3 [6] = experiment: Antiproliferative activity against mouse NIH3T3 cells expressing TRKC G623R mutant assessed as inhibition of cell growth measured after 72 hrs by CCK-8 assay; type: functional
in vitro [7] = details: human, human liver microsomes
Description: Clearance in human liver microsomes

physchem [8] = details: PBS, pH 7
Description: Aqueous solubility of the compound in PBS at pH 7

in vitro [9] = details: mouse, mouse liver microsomes
Description: Half life in mouse liver microsomes

[10] = biological target: Cyclin-dependent kinase 2 (Homo sapiens, UniProt P24941); experiment: Inhibition of human recombinant CDK2 by Kinomescan method
Cytochrome P450 2D6 [11] = biological target: T1, Cytochrome P450 2D6 (Homo sapiens, UniProt P10635)
Description: Inhibition of CYP2D6 in human liver microsomes using dextromethorphan as substrate by LC-MS/MS analysis

Cytochrome P450 3A4 [12] = biological target: T2, Cytochrome P450 3A4 (Homo sapiens, UniProt P08684)
Description: Inhibition of CYP3A4 (unknown origin)

Cytochrome P450 2D6 [13] = biological target: T1, Cytochrome P450 2D6; remark: listed apart in the source
Description: Inhibition of CYP2D6 (unknown origin)

[14] = Plasma protein binding in mouse; type: ADME, cell-free; details: read-out: PPB (converted)
in vitro [15] = details: human, human liver microsomes; remark: listed apart in the source
Description: Half life in human liver microsome

[16] = Kinetic solubility of compound at pH 7; type: physicochemical; details: buffer, read-out: Kinetic_solubility
Cytochrome P450 3A4 [17] = biological target: T2, Cytochrome P450 3A4; remark: listed apart in the source
Description: Inhibition of CYP3A4 in human liver microsomes using testosterone as substrate by LC-MS/MS analysis

BaF3 [18] = experiment: Growth inhibition of mouse BaF3 cells harboring JAK2 V617F mutant assessed as reduction in cell viability incubated for 72 hrs by MTT assay; type: functional
[19] = biological target: Non-receptor tyrosine-protein kinase TYK2 (Homo sapiens, UniProt P29597); experiment: Inhibition of human recombinant TYK2
[20] = biological target: T3, Receptor-type tyrosine-protein kinase FLT3 (Homo sapiens, UniProt P36888)
T3 sequence (P36888 whole entry): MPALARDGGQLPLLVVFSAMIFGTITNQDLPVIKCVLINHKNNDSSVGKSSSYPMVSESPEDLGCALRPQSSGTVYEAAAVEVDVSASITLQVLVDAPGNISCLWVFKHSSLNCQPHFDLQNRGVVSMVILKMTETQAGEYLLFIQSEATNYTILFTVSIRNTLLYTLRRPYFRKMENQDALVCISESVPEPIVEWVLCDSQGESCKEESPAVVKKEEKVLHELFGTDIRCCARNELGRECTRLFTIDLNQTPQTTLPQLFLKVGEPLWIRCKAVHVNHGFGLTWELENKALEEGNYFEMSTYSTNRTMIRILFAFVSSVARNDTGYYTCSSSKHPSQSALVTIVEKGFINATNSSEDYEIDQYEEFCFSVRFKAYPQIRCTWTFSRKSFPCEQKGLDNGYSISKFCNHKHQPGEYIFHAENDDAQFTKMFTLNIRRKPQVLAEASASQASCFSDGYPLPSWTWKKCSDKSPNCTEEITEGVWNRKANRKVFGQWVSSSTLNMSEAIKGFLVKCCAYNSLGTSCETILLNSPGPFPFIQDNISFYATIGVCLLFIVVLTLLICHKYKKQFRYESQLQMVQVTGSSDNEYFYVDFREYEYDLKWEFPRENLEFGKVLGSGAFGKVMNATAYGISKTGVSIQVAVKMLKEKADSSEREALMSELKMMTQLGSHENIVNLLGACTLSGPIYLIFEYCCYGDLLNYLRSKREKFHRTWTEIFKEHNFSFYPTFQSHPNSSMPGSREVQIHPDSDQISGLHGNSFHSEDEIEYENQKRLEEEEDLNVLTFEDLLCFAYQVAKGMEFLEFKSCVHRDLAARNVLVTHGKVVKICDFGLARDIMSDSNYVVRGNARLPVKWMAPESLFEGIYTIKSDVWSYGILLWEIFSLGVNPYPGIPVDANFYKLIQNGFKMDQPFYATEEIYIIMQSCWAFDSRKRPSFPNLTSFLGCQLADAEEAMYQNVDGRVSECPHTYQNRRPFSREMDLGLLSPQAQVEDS
Description: Inhibition of recombinant FLT3 in human MV4-11 cells assessed as reduction in ERK phosphorylation by Western blotting analysis

[21] = biological target: T4, Tyrosine-protein kinase JAK3 (Homo sapiens, UniProt P52333); experiment: Inhibition of human recombinant JAK3
T4 sequence (P52333 whole entry): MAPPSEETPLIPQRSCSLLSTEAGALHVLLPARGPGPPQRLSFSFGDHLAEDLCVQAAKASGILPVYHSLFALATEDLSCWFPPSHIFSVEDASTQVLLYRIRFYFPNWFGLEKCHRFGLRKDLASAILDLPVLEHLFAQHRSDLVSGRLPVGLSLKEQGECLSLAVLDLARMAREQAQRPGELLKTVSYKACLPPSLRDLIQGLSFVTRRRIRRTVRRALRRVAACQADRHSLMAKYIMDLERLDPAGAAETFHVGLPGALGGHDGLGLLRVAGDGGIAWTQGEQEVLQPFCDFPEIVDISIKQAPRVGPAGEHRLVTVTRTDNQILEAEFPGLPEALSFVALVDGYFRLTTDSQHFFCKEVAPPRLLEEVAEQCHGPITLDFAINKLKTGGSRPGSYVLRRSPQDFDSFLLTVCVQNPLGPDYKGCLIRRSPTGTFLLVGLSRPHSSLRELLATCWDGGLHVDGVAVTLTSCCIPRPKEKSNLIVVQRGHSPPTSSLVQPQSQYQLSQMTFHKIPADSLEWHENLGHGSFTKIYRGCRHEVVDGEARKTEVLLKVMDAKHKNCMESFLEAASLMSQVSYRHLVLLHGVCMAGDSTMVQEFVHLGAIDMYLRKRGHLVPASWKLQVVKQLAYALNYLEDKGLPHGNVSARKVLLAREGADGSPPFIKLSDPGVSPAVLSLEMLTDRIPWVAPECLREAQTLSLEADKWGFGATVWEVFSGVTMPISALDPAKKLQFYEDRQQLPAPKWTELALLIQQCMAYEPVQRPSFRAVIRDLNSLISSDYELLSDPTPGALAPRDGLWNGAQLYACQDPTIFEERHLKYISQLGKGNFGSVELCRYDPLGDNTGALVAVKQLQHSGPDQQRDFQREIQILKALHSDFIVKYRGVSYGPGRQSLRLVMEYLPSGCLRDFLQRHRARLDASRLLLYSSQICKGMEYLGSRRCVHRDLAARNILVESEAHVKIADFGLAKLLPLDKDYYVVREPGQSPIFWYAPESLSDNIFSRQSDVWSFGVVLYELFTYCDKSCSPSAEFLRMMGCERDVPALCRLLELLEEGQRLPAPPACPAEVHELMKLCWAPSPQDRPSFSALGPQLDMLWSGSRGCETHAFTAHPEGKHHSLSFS

[22] = biological target: Tyrosine-protein kinase JAK2 (Homo sapiens, UniProt O60674)
Description: Inhibition of human recombinant JAK2

[23] = biological target: Tyrosine-protein kinase JAK1 (Homo sapiens, UniProt P23458)
Description: Inhibition of human recombinant JAK1

physchem [24] = details: octanol/water
Description: Lipophilicity, logD of the compound

BaF3 [25] = experiment: cells; details: Mus musculus, BaF3, 72 h
BaF3 [26] = experiment: cells; details: Mus musculus, BaF3, 72 h; remark: listed apart in the source
Description: Antiproliferative activity against mouse BaF3 cells harbouring wild type TRKC assessed as cell growth inhibition incubated for 3 days by CCK8 method

NIH3T3 [27] = experiment: Antiproliferative activity against mouse NIH3T3 cells expressing wild type TRKC […] assessed as inhibition of cell growth measured after 72 hrs by CCK-8 assay; type: functional
NIH3T3 [28] = experiment: cells; details: Mus musculus
Description: Antiproliferative activity against mouse NIH3T3 cells transfected with wild type TRKA assessed as cell growth inhibition

BaF3 [29] = experiment: cells; details: Mus musculus, BaF3, 72 h; remark: listed apart in the source
Description: Antiproliferative activity against mouse BaF3 cells harbouring TRKA G595R mutant assessed as cell growth inhibition incubated for 3 days by CCK8 method

BaF3 [30] = experiment: cells; details: Mus musculus, BaF3, 72 h; remark: listed apart in the source
Description: Antiproliferative activity against mouse BaF3 cells harbouring ETV6-TRKC G623E mutant incubated for 3 days by CCK8 method

in vitro [31] = details: PAMPA, pH 7.4
Description: Permeability of compound at pH 7.4 by PAMPA assay

[32] = biological target: ALK tyrosine kinase receptor (Homo sapiens, UniProt Q9UM73, L1196M)
Description: Binding affinity to ALK L1196M mutant (unknown origin) assessed as inhibition constant

[33] = biological target: ALK tyrosine kinase receptor (Homo sapiens, UniProt Q9UM73)
Description: Binding affinity to ALK (unknown origin) assessed as inhibition of constant

Non-receptor tyrosine-protein kinase TYK2, sequence (P29597 whole entry): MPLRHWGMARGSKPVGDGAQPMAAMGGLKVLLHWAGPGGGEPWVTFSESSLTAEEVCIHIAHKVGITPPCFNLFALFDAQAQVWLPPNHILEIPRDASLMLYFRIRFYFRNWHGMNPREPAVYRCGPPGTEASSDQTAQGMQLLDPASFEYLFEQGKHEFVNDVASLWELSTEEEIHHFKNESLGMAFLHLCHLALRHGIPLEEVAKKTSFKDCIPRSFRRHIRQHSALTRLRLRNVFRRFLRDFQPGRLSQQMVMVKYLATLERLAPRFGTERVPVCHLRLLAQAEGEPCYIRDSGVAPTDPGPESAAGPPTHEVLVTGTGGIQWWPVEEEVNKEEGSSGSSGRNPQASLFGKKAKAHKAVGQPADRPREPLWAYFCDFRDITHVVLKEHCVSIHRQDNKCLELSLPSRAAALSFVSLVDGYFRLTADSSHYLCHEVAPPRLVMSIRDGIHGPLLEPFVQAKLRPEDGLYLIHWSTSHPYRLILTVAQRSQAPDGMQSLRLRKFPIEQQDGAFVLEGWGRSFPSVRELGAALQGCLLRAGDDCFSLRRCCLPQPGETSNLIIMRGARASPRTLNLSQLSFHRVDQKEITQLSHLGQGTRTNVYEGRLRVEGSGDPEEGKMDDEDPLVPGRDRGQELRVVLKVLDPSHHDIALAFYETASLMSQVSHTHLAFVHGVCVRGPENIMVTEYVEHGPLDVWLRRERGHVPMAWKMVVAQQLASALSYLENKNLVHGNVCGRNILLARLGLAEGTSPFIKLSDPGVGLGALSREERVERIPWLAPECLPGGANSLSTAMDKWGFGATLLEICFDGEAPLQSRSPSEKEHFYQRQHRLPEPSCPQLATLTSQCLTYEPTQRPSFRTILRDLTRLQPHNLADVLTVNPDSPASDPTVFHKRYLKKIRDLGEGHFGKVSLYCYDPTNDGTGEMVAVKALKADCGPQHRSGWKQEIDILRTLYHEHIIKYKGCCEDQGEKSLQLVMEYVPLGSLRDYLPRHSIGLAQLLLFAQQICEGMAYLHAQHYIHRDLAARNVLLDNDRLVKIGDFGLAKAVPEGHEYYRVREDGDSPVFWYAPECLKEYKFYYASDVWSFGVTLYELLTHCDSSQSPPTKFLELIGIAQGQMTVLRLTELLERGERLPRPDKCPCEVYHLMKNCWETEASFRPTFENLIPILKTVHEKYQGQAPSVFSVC
T2 sequence (P08684 whole entry): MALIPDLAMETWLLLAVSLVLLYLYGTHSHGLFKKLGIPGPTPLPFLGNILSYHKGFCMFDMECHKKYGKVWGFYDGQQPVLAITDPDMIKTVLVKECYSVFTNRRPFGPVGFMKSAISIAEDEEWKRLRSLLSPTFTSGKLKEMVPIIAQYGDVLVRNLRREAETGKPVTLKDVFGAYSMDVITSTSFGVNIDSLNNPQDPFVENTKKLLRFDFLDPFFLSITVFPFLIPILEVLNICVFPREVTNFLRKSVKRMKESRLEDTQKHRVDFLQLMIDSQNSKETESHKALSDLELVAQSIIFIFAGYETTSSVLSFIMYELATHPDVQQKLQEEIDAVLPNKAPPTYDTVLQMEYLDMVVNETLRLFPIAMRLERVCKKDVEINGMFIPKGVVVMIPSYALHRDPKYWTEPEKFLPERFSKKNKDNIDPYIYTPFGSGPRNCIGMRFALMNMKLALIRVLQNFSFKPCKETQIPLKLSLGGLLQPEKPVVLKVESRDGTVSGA
Tyrosine-protein kinase JAK2, sequence (O60674 whole entry): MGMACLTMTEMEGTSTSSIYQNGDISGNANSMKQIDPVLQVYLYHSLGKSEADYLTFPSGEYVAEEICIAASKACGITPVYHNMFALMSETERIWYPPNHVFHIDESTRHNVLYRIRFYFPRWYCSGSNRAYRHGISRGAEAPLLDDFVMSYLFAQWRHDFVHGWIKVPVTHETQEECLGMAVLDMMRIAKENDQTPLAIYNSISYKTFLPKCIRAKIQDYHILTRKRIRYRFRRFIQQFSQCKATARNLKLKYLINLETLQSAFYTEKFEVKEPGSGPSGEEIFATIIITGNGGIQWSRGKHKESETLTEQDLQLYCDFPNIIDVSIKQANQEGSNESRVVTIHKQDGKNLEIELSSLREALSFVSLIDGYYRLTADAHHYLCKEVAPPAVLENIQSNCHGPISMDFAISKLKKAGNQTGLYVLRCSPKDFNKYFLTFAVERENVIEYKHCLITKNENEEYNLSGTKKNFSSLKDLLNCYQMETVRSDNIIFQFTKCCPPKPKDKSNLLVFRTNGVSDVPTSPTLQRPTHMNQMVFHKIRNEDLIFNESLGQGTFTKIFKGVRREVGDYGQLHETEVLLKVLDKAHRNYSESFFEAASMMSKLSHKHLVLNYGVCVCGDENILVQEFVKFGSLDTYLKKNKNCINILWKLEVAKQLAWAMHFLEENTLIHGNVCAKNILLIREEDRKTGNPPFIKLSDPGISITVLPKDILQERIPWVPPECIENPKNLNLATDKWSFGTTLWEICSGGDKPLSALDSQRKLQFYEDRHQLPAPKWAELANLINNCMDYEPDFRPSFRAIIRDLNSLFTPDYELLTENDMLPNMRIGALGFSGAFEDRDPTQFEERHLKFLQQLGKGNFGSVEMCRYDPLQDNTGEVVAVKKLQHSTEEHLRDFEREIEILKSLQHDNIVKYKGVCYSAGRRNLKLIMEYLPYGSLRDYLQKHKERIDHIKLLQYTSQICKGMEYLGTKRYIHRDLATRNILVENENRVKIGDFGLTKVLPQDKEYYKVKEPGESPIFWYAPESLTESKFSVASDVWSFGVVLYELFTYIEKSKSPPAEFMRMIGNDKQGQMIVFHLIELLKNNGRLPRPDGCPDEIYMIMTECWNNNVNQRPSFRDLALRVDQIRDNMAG
Tyrosine-protein kinase JAK1, sequence (P23458 whole entry): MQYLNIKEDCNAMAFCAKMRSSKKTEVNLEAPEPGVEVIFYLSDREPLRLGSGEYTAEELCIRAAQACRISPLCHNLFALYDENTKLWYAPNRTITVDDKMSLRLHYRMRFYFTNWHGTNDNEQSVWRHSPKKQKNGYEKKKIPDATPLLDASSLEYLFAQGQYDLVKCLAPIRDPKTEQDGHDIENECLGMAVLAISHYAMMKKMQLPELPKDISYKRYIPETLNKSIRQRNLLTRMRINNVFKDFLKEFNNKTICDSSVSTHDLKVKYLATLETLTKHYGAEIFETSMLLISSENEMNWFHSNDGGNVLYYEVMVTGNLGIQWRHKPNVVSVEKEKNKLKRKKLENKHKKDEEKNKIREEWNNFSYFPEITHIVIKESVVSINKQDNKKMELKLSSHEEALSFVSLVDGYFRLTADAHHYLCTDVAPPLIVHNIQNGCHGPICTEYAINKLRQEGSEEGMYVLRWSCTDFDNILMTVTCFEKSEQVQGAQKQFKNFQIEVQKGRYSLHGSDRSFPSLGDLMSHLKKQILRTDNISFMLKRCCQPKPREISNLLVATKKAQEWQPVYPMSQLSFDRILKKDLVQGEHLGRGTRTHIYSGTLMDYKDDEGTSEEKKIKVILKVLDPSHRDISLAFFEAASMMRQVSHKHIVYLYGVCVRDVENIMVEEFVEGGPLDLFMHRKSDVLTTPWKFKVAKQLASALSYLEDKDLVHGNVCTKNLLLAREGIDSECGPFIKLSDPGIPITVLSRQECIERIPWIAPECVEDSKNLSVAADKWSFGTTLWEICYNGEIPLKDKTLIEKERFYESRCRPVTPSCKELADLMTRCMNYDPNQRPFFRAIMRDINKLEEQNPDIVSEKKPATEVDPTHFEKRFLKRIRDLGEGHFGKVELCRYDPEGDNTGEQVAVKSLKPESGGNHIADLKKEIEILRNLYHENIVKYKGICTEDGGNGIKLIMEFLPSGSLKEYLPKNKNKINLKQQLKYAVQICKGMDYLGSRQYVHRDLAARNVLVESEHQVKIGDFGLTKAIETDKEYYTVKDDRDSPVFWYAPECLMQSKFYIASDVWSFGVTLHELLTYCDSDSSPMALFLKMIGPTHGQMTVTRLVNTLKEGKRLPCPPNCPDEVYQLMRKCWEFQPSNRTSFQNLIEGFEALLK
T1 sequence (P10635 whole entry): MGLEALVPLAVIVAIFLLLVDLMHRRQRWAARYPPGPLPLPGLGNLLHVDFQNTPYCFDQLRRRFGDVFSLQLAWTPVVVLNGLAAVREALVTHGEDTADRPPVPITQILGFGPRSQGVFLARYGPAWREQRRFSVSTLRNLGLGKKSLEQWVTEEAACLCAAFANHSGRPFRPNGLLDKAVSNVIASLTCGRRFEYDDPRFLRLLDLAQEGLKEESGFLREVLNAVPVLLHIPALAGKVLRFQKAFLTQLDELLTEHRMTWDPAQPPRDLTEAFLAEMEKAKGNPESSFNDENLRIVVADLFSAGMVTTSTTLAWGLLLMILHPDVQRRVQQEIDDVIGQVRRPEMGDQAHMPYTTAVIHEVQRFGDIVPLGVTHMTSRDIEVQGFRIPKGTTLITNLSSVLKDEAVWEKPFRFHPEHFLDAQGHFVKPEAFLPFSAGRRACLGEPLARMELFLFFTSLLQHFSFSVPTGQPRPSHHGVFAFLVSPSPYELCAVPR

C[C@@H]1CCc2ncc(F)cc2[C@H]2CCCN2c2ccn3ncc(c3n2)C(=O)N1 [SELITRECTINIB]
GI50 (NIH3T3 [1]): 0.0175 µM
GI50 (NIH3T3 [2]): 0.025 µM
GI50 (NIH3T3 [3]): 0.007 µM
GI50 (NIH3T3 [4]): 0.029 µM
GI50 (NIH3T3 [5]): 0.009 µM
GI50 (NIH3T3 [6]): 0.0455 µM

COc1ccc(F)cc1[C@@H](C)Oc1cc(-c2cnnn2C)cnc1N
microsomal CLint (in vitro [7]): 25 µL/min/mg

C1=N/C2=N/c3ccc(OCCN4CCCC4)c(c3)COC/C=C/COCc3cccc(c3)C(=C1)N2 [PACRITINIB]
solubility (physchem [8]): > 150 µg/mL
half-life (in vitro [9]): 22 min
IC50 [10]: > 3.9 µM
IC50 (Cytochrome P450 2D6 [11]): 5 µM
IC50 (Cytochrome P450 3A4 [12]): > 5 µM
IC50 (Cytochrome P450 2D6 [13]): > 5 µM
fraction unbound [14]: 0.006
half-life (in vitro [15]): > 60 min
solubility kinetic [16]: > 150 µg/mL
IC50 (Cytochrome P450 3A4 [17]): > 5 µM
GI50 (BaF3 [18]): 0.16 µM

Cc1cnc2nc1-c1cccc(c1)COC/C=C/COCc1cc(ccc1OCCN1CCCC1)N2
IC50 [19]: 0.057 µM
IC50 [20]: 0.019 µM
IC50 [21]: 0.089 µM
IC50 [22]: 0.007 µM
GI50 (BaF3 [18]): 0.18 µM
IC50 [23]: 1 µM

Cc1nn(C)c2c1-c1cnc(N)c(c1)O[C@H](C)c1cc(F)ccc1C(=O)N(C)C2
microsomal CLint (in vitro [7]): 8.6 µL/min/mg

CNC(=O)c1ccc(F)cc1[C@@H](C)Oc1cc(-c2cn(C)nc2C)cnc1N
microsomal CLint (in vitro [7]): 28 µL/min/mg
logD (physchem [24]): 3.7

OCCN1CCN(c2ccc3cc2COC/C=C/COCc2cccc(c2)-c2ccnc(n2)N3)CC1
IC50 [10]: 3.7 µM
IC50 [19]: 0.16 µM
IC50 [20]: 0.07 µM
IC50 [21]: 2.5 µM
IC50 [22]: 0.084 µM
IC50 [23]: 3.1 µM

CNC(=O)c1ccc(F)cc1[C@@H](C)Oc1nc(-c2cccnc2OC)cnc1N
microsomal CLint (in vitro [7]): 76 µL/min/mg

C1=C2COC/C=C/COCc3cc(ccc3OCCN3CCCC3)Nc3nccc(n3)C(=C1)O2 [CT-1578]
half-life (in vitro [9]): 18 min
fraction unbound [14]: 0.127
half-life (in vitro [15]): > 60 min
solubility kinetic [16]: > 250 µg/mL

C[C@H]1Oc2cc(cnc2N)-c2c(nn(C)c2C#N)CN(C)C(=O)c2ccc(F)cc21 [LORLATINIB]
microsomal CLint (in vitro [7]): < 8 µL/min/mg

O=C(Nc1cnn2ccc(N3CCC[C@@H]3c3cc(F)ccc3F)nc12)N1CC[C@H](O)C1 [LAROTRECTINIB]
GI50 (BaF3 [25]): 3.29 µM
GI50 (BaF3 [26]): 0.0102 µM
GI50 (NIH3T3 [1]): 0.172 µM
GI50 (NIH3T3 [2]): 0.07 µM
GI50 (NIH3T3 [27]): 0.0188 µM
GI50 (NIH3T3 [28]): 0.005 µM
GI50 (BaF3 [29]): 1.02 µM
GI50 (NIH3T3 [4]): 1.02 µM
GI50 (NIH3T3 [6]): > 10 µM
GI50 (BaF3 [30]): 0.742 µM

COc1ccc2cc1COC/C=C/COCc1cc(ccc1OCCN1CCCC1)Nc1nccc-2n1
solubility (physchem [8]): 60.8 µg/mL (≈ 121 µM)
Papp (in vitro [31]): 10.1 ×10⁻⁶ cm/s
IC50 [10]: > 10 µM
IC50 [19]: 0.18 µM
IC50 [20]: 0.092 µM
IC50 [21]: 0.89 µM
IC50 (Cytochrome P450 2D6 [11]): 10 µM
IC50 (Cytochrome P450 3A4 [17]): > 10 µM
IC50 [22]: 0.019 µM
GI50 (BaF3 [18]): 0.1 µM
IC50 [23]: > 10 µM

CN1C/C=C/CCOc2cccc(c2)-c2ccnc(n2)Nc2cccc(c2)C1 [ZOTIRACICLIB]
half-life (in vitro [9]): 12 min
IC50 (Cytochrome P450 3A4 [12]): > 25 µM
fraction unbound [14]: 0.006
solubility kinetic [16]: 71.8 µg/mL (≈ 193 µM)

COc1ccc2cc1COC/C=C/COCc1cccc(c1)-c1ccnc(n1)N2
IC50 [10]: 0.86 µM
IC50 [19]: 0.21 µM
IC50 [21]: 1.2 µM
IC50 [23]: 1.9 µM

CN(C)CCN(C)c1ccc2cc1COC/C=C/COCc1cccc(c1)-c1ccnc(n1)N2
IC50 [10]: 0.088 µM
IC50 [19]: 0.071 µM
IC50 [20]: 0.031 µM
IC50 [22]: 0.077 µM
IC50 [23]: 3.6 µM

C[C@@H]1Oc2cc(cnc2N)-c2c(C#N)nn(C)c2CCCOc2ccc(F)cc21
Ki [32]: 0.00062 µM
Ki [33]: < 0.0001 µM
logD (physchem [24]): 3.8
